Like-named read-outs stand apart in the source and are kept apart here. Some results are limits rather than exact numbers.

For experiment [1], the system named is cabbage looper (Trichoplusia ni [Hubner]). Briefly: Foliar spray test on pinto bean plants, cabbage looper, 96 hour exposure. It is filed as in vivo. To be noted: rate of application 100 ppm, dead plus moribund insects, * = average of more than one test. As to the method: (§1) Candidate insecticides with high pl50 values from the diet test were tested for insecticidal activity in foliar evaluations against tobacco budworm, beet armyworm (Spodoptera exigua [Hubner]), and cabbage looper (Trichoplusia ni [Hubner])
(§2) In these tests against tobacco budworm and beet armyworm, nine-day-old chick pea plants (Cicer arietinum) were sprayed at 20 psi to runoff on both upper and lower leaf surfaces with solutions of test chemical to provide application rates as high as 1000 ppm of test chemical. The solvent used to prepare the solutions of test chemical was 10% acetone or methanol (v/v) and 0.1% of the surfactant octylphenoxypolyethoxyethanol in distilled water. Four replicates, each containing one chick pea plant, for each rate of application of test chemical were sprayed. The treated plants were transferred to a hood, where they were kept until the spray had dried.
(§3) The four chick pea plants for each replicate treated with test chemical as described above were removed from their pots by cutting the stems just above the soil line. The excised leaves and stems from the four plants in each replicate were placed in individual 8-ounce paper cups, each containing a moistened filter paper. Five second-instar (6 days old) tobacco budworms or beet armyworms (7-8 days old) were counted into each cup, taking care not to cause injury. An opaque plastic lid was placed on each cup, which was then held in a growth chamber for a 96 hour exposure period at 25°C and 50% relative humidity. At the end of the 96 hour exposure period the cups were opened, and the numbers of dead, moribund, and live insects were counted. Using the insect counts, the efficacy of the test chemical was expressed in percent control. Percent control is derived from the total number of dead insects (TD) plus the total number of moribund insects (TM) as compared to the total number of insects (TI) in the test: % Control =(TD+TM)/(TI)x 100 [formula]
(§4) The condition of the test plants was also observed for phytotoxicity and for reduction of feeding damage as compared to an untreated control.
Foliar tests with cabbage looper were conducted in the same manner as described above, the difference being that pinto bean plants (Phaseolus vulgaris) were used in place of chick pea plants.

The test system of experiment [2] is tobacco budworm (Heliothis virescens [Fabricius]). Briefly: Diet test: test chemical incorporated into artificial diet of tobacco budworm larvae, 5-day exposure. It is filed as in vivo. To be noted: for IC50 / LC50 / mortality at 100 µM / pest or weed control at 100 µM: Heliothis virescens, 120 h; for LC50: read-out: pLC50 (converted); for mortality at 100 µM / pest or weed control at 100 µM: feed or water; for mortality at 100 µM: read-out: Percent Mortality; for pest or weed control at 100 µM / Percent Growth Inhibition: rate of application 4 (negative log of molar concentration in the diet), second instar larvae, 25°C; for pest or weed control at 100 µM: read-out: Percent Growth Inhibition. As to the method:
Candidate insecticides were incorporated into an artificial diet for evaluation of insecticidal activity against the tobacco budworm (Heliothis virescens [Fabricius]) in the following manner. Stock solutions of test chemical in dimethyl sulfoxide, ranging from […], were prepared for each rate of application. One hundred microliters of each of the stock solutions was manually stirred into 50 mL of a molten (65-70°C) wheat germ-based artificial diet. The 50 mL of molten diet containing the test chemical was poured evenly into twenty wells in the outer two rows on each side of a twenty-five well, five row plastic tray. (Each well in the tray was about 1 cm in depth, with an opening of 3 cm by 4 cm at the lip.) Molten diet containing only dimethyl sulfoxide at the levels used in the test chemical-treated diet was poured into the five wells in the third (center) row of the tray. Each tray therefore contained one test chemical at a single rate of application, together with an untreated control. The rates of application, expressed as the negative log of the molar concentration, and the corresponding concentrations of the stock solution prepared for each rate are shown below:
Single second instar tobacco budworm larvae, selected at a stage of growth at which they uniformly weigh about 5 mg each, were placed in each well. Upon completion of infestation, a sheet of clear plastic was heat-sealed over the top of the tray by use of a common household flat.iron. The trays were held at 25°C at 60% relative humidity for five days in a growth chamber. Lighting was set at 14 hours of light and 10 hours of darkness. After the 5-day exposure period, mortality counts were taken, and the surviving insects were weighed. From the weights of the surviving insects that fed on the treated diet as compared to those insects that fed on the untreated diet, the percent growth inhibition caused by each test chemical was determined. […] Also, where possible, the negative log of the concentration of the test chemical that provided 50% mortality (pLC50) was determined.

The test system of experiment [3] is beet armyworm (Spodoptera exigua [Hubner]). The experiment can be described thus: Foliar spray test on chick pea plants, beet armyworm, 96 hour exposure. The experiment is classed as in vivo. To be noted: rate of application 100 ppm, dead plus moribund insects, * = average of more than one test. As to the method: as §1, §2, §3, §4
Experiment [4] relates to tobacco budworm (Heliothis veriscens [Fabricius]). The experiment can be described thus: Foliar spray test on chick pea plants, tobacco budworm, 96 hour exposure. The experiment is classed as in vivo, Heliothis virescens. To be noted: rate of application 100 ppm, dead plus moribund insects, * = average of more than one test. As to the method:
as §1, §2, §3, §4

Setting [5] is: negative log of the concentration that provides 50% growth inhibition, by linear regression, 5 days, * = average of more than one test, read-out: pl50 (converted).
Where [6] appears, read: negative log of the concentration that provides 50% mortality, 5 days, * = average of more than one test.
[7] abbreviates: 5 days, * = average of more than one test.
[8] abbreviates: negative log of the concentration that provides 50% growth inhibition, by linear regression, 5 days, * = average of more than one test.

Regarding `COc1ccc(CN2CCC(C(O)(c3ccc(OC(F)(F)F)cc3)c3ccc(OC(F)(F)F)cc3)CC2)cc1` [Compound 1, N-(4-methoxyphenylmethyl)-4-[bis(4-trifluoromethoxyphenyl)hydroxymethyl]piperidine], in experiment [1], the “Percent Control CL” value amounted to 100%. For the same molecule, the IC50 in experiment [2] (setting [5]) is 794 nM. Further, the LC50 in experiment [2] (setting [6]) was 25100 nM. Further, the mortality at 100 µM in experiment [2] was found to be 100%. Further, in experiment [2] (setting [7]), the pest or weed control at 100 µM amounted to 100%. For the same molecule, the “Percent Control BAW” value in experiment [3] was found to be 55%. Further, in experiment [4], the “Percent Control TBW” value is 80%.
As to `Cn1nnc(-c2ccc(CN3CCC(C(O)(c4ccc(OC(F)(F)F)cc4)c4ccc(OC(F)(F)F)cc4)CC3)cc2)n1` [Compound 9, N-[4-(2-methyl-2H-tetrazol-5-yl)phenylmethyl]-4-[bis(4-trifluoromethoxyphenyl)hydroxymethyl]piperidine], in experiment [1], the “Percent Control CL” value was 100%. The IC50 in experiment [2] (setting [5]) was ≤ 316 nM. In addition, the LC50 in experiment [2] (setting [6]) was 2510 nM. Besides, in experiment [2], the mortality at 100 µM came out at 100%. Moreover, the pest or weed control at 100 µM in experiment [2] (setting [7]) is 100%. In addition, in experiment [2] (setting [8]), the pl50 turned out to be 6.6. For the same molecule, the “Percent Control BAW” value in experiment [3] turned out to be 100%. Besides, the “Percent Control TBW” value in experiment [4] came to 100%.
Regarding `Cn1nnc(-c2ccc(CN3CCC(C(O)(c4ccc(C(F)(F)F)cc4)c4ccc(C(F)(F)F)cc4)CC3)cc2)n1` [Compound 31, N-[4-(2-methyl-2H-tetrazol-5-yl)phenylmethyl]-4-[bis(4-trifluoromethylphenyl)hydroxymethyl]piperidine], in experiment [1], the “Percent Control CL” value is 100%. Further, the IC50 in experiment [2] (setting [5]) was ≤ 316 nM. Besides, in experiment [2] (setting [6]), the LC50 is 2510 nM. Besides, the mortality at 100 µM in experiment [2] is 100%. The pest or weed control at 100 µM in experiment [2] (setting [7]) stood at 100%. In addition, the “Percent Control BAW” value in experiment [3] is 100* %. For the same molecule, the “Percent Control TBW” value in experiment [4] was 100%.
For the molecule `Cn1nnc(-c2ccc(C[N+]3([O-])CCC(C(O)(c4ccc(C(F)(F)F)cc4)c4ccc(C(F)(F)F)cc4)CC3)cc2)n1` (stereo not drawn) [Compound 32, N-[4-(2-methyl-2H-tetrazol-5-yl)phenylmethyl]-4-[bis(4-trifluoromethylphenyl)hydroxymethyl]piperidine N-oxide], the “Percent Control CL” value in experiment [1] was determined as 100%. The IC50 in experiment [2] (setting [5]) was ≤ 316 nM. Also, the LC50 in experiment [2] (setting [6]) was 2510 nM. Moreover, in experiment [2], the mortality at 100 µM stood at 100%. For the same molecule, in experiment [2] (setting [7]), the pest or weed control at 100 µM was 100%. Besides, in experiment [3], the “Percent Control BAW” value was 100* %. The “Percent Control TBW” value in experiment [4] was 100%.
Take `CCn1nnc(-c2ccc(CN3CCC(C(O)(c4ccc(C(F)(F)F)cc4)c4ccc(C(F)(F)F)cc4)CC3)cc2)n1` [Compound 33]: in experiment [1], the “Percent Control CL” value worked out at 95%. Moreover, in experiment [2] (setting [5]), the IC50 is ≤ 316 nM. Also, the LC50 in experiment [2] (setting [6]) was 794 nM. The mortality at 100 µM in experiment [2] amounted to 100%. Further, in experiment [2] (setting [8]), the pl50 was found to be 6.6. Further, the “Percent Growth Inhibition” value in experiment [2] (setting [7]) worked out at 99%. For the same molecule, the “Percent Control BAW” value in experiment [3] was 100%. Further, in experiment [4], the “Percent Control TBW” value amounted to 100%.
Consider `CCn1nnc(-c2ccc(C[N+]3([O-])CCC(C(O)(c4ccc(C(F)(F)F)cc4)c4ccc(C(F)(F)F)cc4)CC3)cc2)n1` (stereo not drawn) [Compound 34], for which the “Percent Control CL” value in experiment [1] is 100%. Moreover, the IC50 in experiment [2] (setting [5]) is ≤ 316 nM. For the same molecule, in experiment [2] (setting [6]), the LC50 was 1260 nM. In addition, the mortality at 100 µM in experiment [2] was determined as 100%. The “Percent Growth Inhibition” value in experiment [2] (setting [7]) stood at 100%. In experiment [3], the “Percent Control BAW” value was determined as 100%. Moreover, the “Percent Control TBW” value in experiment [4] was 100%.
With `CCCOc1ccc(CN2CCC(C(O)(c3ccc(C(F)(F)F)cc3)c3ccc(C(F)(F)F)cc3)CC2)cc1` [Compound 102], the “Percent Control CL” value in experiment [1] was 100* %. Besides, in experiment [2], the LC50 was 3160 nM and the mortality at 100 µM is 100%. In experiment [2] (read-out: pl50), the IC50 was < 1000 nM. For the same molecule, the “Percent Growth Inhibition” value in experiment [2] (setting [7]) was 100%. The “Percent Control BAW” value in experiment [3] is 100* %. Also, the “Percent Control TBW” value in experiment [4] is 98* %.

A word on the mortality: it is the share of the test organisms that died.

(Values after patent EP0844825B1, “INSECTICIDAL N-(SUBSTITUTED ARYLMETHYL)-4- BIS(SUBSTITUTED PHENYL OR PYRIDYL)METHYL]PIPERIDINES” (FMC CORPORATION, priority 1995, dated 1996).)
